# Results published in the supplement of paper PMC10307832.
# Tests used:
# Assay in all cases: relative viability (nuclei count vs DMSO), 5 days (fraction); higher = more cells survive
# [1] = compound: CC(C)(C)c1cc(NC(=O)Nc2ccc(-c3cn4c(n3)sc3cc(OCCN5CCOCC5)ccc34)cc2)no1 [Quizartinib] + CCNC(=O)c1noc(-c2cc(C(C)C)c(O)cc2O)c1-c1ccc(CN2CCOCC2)cc1 [Luminespib] (partner 0.01 µM)
# Summary of the method: (§1)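 Lung cancer cell lines were pin-tool dosed in 1536-well plates on the day after seeding, with either a lone drug or a fixed anchor-drug dose plus five library-drug doses (not always all listed) in √10 steps. Nuclei were counted on 4× images after 5 days. Relative viability is the ratio of treated-well to vehicle-well nuclei counts, with each value a median of duplicate plates.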
# [2] = compound: COCC[n+]1c2c(n(Cc3cnccn3)c1C)C(=O)c1ccccc1C2=O [YM155] + NC(=O)Nc1cc(-c2cccc(F)c2)sc1C(=O)N[C@H]1CCCNC1 [AZD7762] (partner 0.2 µM)
# Summary of the method: as §1
# [3] = compound: CC(C)(C)c1cc(NC(=O)Nc2ccc(-c3cn4c(n3)sc3cc(OCCN5CCOCC5)ccc34)cc2)no1 [Quizartinib] + CS(=O)(=O)N1CCN(Cc2cc3nc(-c4cccc5[nH]ncc45)nc(N4CCOCC4)c3s2)CC1 [Pictilisib] (partner 1 µM)
# Summary of the method: as §1
# [4] = compound: COCC[n+]1c2c(n(Cc3cnccn3)c1C)C(=O)c1ccccc1C2=O [YM155] + COc1cccc2cc(-c3nc([C@H]4CC[C@H](C(=O)O)CC4)n4ncnc(N)c34)[nH]c12 [OSI-027] (partner 0.5 µM)
# Summary of the method: as §1
Cell Line,relative viability ([1]; first compound 0.001 µM),relative viability ([1]; first compound 0.003162 µM),relative viability ([1]; first compound 0.01 µM),relative viability ([1]; first compound 0.03162 µM),relative viability ([1]; first compound 0.1 µM),relative viability ([2]; first compound 0.002 µM),relative viability ([2]; first compound 0.006325 µM),relative viability ([2]; first compound 0.02 µM),relative viability ([2]; first compound 0.06325 µM),relative viability ([3]; first compound 0.001 µM),relative viability ([3]; first compound 0.003162 µM),relative viability ([3]; first compound 0.01 µM),relative viability ([3]; first compound 0.03162 µM),relative viability ([3]; first compound 0.1 µM),relative viability ([4]; first compound 0.002 µM),relative viability ([4]; first compound 0.006325 µM),relative viability ([4]; first compound 0.02 µM),relative viability ([4]; first compound 0.06325 µM)
NCI-H1355,0.814,0.689,0.721,0.68,0.725,0.74,0.749,0.781,0.798,0.352,0.418,0.41,0.426,0.5,0.386,0.394,0.454,0.47
NCI-H2170,0.65,0.741,0.838,0.769,0.737,0.873,0.817,0.839,0.734,0.388,0.327,0.308,0.42,0.321,0.698,0.785,0.695,0.74
NCI-H727,,0.443,0.41,0.665,0.309,0.768,0.676,0.684,0.703,0.277,,0.365,0.351,0.485,0.473,0.612,0.703,0.595
NCI-H460,0.0338,0.0373,0.0292,0.0246,0.0321,0.596,0.628,0.777,0.459,0.439,0.436,0.382,0.352,0.384,0.584,0.769,0.757,0.694
NCI-H647,0.174,0.155,0.213,0.327,0.189,0.429,0.509,0.407,0.0872,0.466,0.434,0.536,,0.474,0.812,0.736,0.762,0.483
